#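 Values below derive from 48-hour exposures of cells grown in 96-well plates, with endpoints linearly interpolated between the two concentrations bracketing the appropriate inhibition level. The concentration for 50% growth inhibition is given as GI50.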 The source made the active and inactive calls. Rule as the data show it: active = GI50 up to about 1.1 µM and inactive = higher.
# Legend:
# Test in all cases: NCI tumour cell line growth inhibition, 48 h
# UACC-62 = system: UACC-62
# UACC-257 = system: UACC-257
# NCI-H226 = system: NCI-H226
# KM-20L2 = system: KM-20L2
# SK-OV-3 = system: SK-OV-3
# HOP-92 = system: HOP-92
# HOP-62 = system: HOP-62
# LXFL 529 = system: LXFL 529
# KM12 = system: KM12
# SW-620 = system: SW-620
# XF498 = system: XF498
# SF-539 = system: SF-539
# SK-MEL-2 = system: SK-MEL-2
# LOX IMVI = system: LOX IMVI
# NCI-H522 = system: NCI-H522
# CAKI-1 = system: CAKI-1
# SF-268 = system: SF-268
# A549 = system: A549
# HT-29 = system: HT-29
# SNB-75 = system: SNB-75
# SK-MEL-28 = system: SK-MEL-28
# SN12C = system: SN12C
# NCI-H460 = system: NCI-H460
# ACHN = system: ACHN
# SK-MEL-5 = system: SK-MEL-5
# DMS-273 = system: DMS-273
# RXF 393 = system: RXF 393
# IGROV-1 = system: IGROV-1
# OVCAR-4 = system: OVCAR-4
# HCT-15 = system: HCT-15
# K562 = system: K562
# OVCAR-5 = system: OVCAR-5
# CCRF-CEM = system: CCRF-CEM
# SNB-19 = system: SNB-19
# DLD-1 = system: DLD-1
# OVCAR-3 = system: OVCAR-3
# SNB-78 = system: SNB-78
# UO-31 = system: UO-31
# HL-60 = system: HL-60
# DMS-114 = system: DMS-114
# A498 = system: A498
# HCC 2998 = system: HCC 2998
# M19-MEL = system: M19-MEL
# RXF 631 = system: RXF 631
# HCT-116 = system: HCT-116
# SR = system: SR
# SF-295 = system: SF-295
# TK-10 = system: TK-10
# M14 = system: M14
# NCI-H23 = system: NCI-H23
# U-251 = system: U-251
# RPMI-8226 = system: RPMI-8226
# MOLT-4 = system: MOLT-4
# OVCAR-8 = system: OVCAR-8
# HOP-18 = system: HOP-18
# COLO 205 = system: COLO 205
# 786-0 = system: 786-0
# Malme-3M = system: Malme-3M
# EKVX = system: EKVX
smiles,measurement,setting,value
Clc1ccc2c(c1)[nH]c1c2nc2sccn21,GI50,UACC-62,> 100 µM (inactive)
same,GI50,UACC-257,> 100 µM (inactive)
same,GI50,NCI-H226,> 100 µM (inactive)
same,GI50,KM-20L2,> 100 µM (inactive)
same,GI50,SK-OV-3,> 100 µM (inactive)
same,GI50,HOP-92,> 100 µM (inactive)
same,GI50,HOP-62,> 100 µM (inactive)
same,GI50,LXFL 529,> 100 µM (inactive)
same,GI50,KM12,> 100 µM (inactive)
same,GI50,SW-620,> 100 µM (inactive)
same,GI50,XF498,> 100 µM (inactive)
same,GI50,SF-539,> 100 µM (inactive)
same,GI50,SK-MEL-2,> 100 µM (inactive)
same,GI50,LOX IMVI,> 100 µM (inactive)
same,GI50,NCI-H522,> 100 µM (inactive)
same,GI50,CAKI-1,> 100 µM (inactive)
same,GI50,SF-268,> 100 µM (inactive)
same,GI50,A549,> 100 µM (inactive)
same,GI50,HT-29,> 100 µM (inactive)
same,GI50,SNB-75,28.6 µM (inactive)
same,GI50,SK-MEL-28,> 100 µM (inactive)
same,GI50,SN12C,> 100 µM (inactive)
same,GI50,NCI-H460,> 100 µM (inactive)
same,GI50,ACHN,> 100 µM (inactive)
same,GI50,SK-MEL-5,> 100 µM (inactive)
same,GI50,DMS-273,> 100 µM (inactive)
same,GI50,RXF 393,> 100 µM (inactive)
same,GI50,IGROV-1,> 100 µM (inactive)
same,GI50,OVCAR-4,> 100 µM (inactive)
same,GI50,HCT-15,> 100 µM
same,GI50,K562,> 100 µM (inactive)
same,GI50,OVCAR-5,> 100 µM (inactive)
same,GI50,CCRF-CEM,> 100 µM (inactive)
same,GI50,SNB-19,> 100 µM (inactive)
same,GI50,DLD-1,> 100 µM (inactive)
same,GI50,OVCAR-3,> 100 µM (inactive)
same,GI50,SNB-78,> 100 µM (inactive)
same,GI50,UO-31,> 100 µM (inactive)
same,GI50,HL-60,> 100 µM (inactive)
same,GI50,DMS-114,> 100 µM (inactive)
same,GI50,A498,> 100 µM (inactive)
same,GI50,HCC 2998,> 100 µM (inactive)
same,GI50,M19-MEL,> 100 µM (inactive)
same,GI50,RXF 631,> 100 µM (inactive)
same,GI50,HCT-116,> 100 µM (inactive)
same,GI50,SR,> 100 µM (inactive)
same,GI50,SF-295,> 100 µM (inactive)
same,GI50,TK-10,> 100 µM (inactive)
same,GI50,M14,> 100 µM (inactive)
same,GI50,NCI-H23,> 100 µM (inactive)
same,GI50,U-251,> 100 µM (inactive)
same,GI50,RPMI-8226,> 100 µM (inactive)
same,GI50,MOLT-4,> 100 µM (inactive)
same,GI50,OVCAR-8,> 100 µM (inactive)
same,GI50,HOP-18,> 100 µM (inactive)
same,GI50,COLO 205,> 100 µM (inactive)
same,GI50,786-0,> 100 µM (inactive)
same,GI50,Malme-3M,> 100 µM (inactive)
same,GI50,EKVX,> 100 µM (inactive)
